This is an account of results in ChEMBL document CHEMBL1201862, “PubChem BioAssay data set” (2004).

In assay [1] the target is Nuclear receptor subfamily 0 group B member 1 (Homo sapiens, UniProt P51843). It counts as functional, cell-based.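 Also: HEK293T cells transfected with SF-1 and DAX-1 plus StAR promoter luciferase reporter.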
Assay [2] is described as follows: cells. Format: functional, cell-based.
A further assay has as its target fMet-Leu-Phe receptor (Homo sapiens, UniProt P21462). The experiment in a line: FPR ligands, dose response (AID 519). Format: functional.
Assay [3] addresses FAD-linked sulfhydryl oxidase ALR (Homo sapiens, UniProt P55789). The experiment in a line: inhibitors of human ALR sulfhydryl oxidase, dose response, biochemical, H2O2 detection, luminescence, cherry-pick (AID 493248).
Assay [4] concerns the target Endoplasmic reticulum aminopeptidase 1 (Homo sapiens, UniProt Q9NZ08). The experiment in a line: ERAP1 aminopeptidase inhibitors, dose response, biochemical, cherry-pick, set 2, plate reader (AID 743314).
Assay [5] addresses T1, Beta-2 adrenergic receptor (Homo sapiens, UniProt P07550). The assay can be described thus: beta2AR agonists driving receptor internalization, dose response, cell-based, FAP fluorogen, flow cytometry, cherry pick 1 (AID 588763). It counts as functional. On the technique in general: Flow cytometry measures light scatter and fluorescence of single cells or particles in a stream.

Assay [6] concerns the target Fructose-bisphosphate aldolase (Mycobacterium tuberculosis, UniProt P9WQA3). The assay can be described thus: Fluorescence-based biochemical high throughput dose response assay for inhibitors of the fructose-bisphosphate aldolase (FBA) of M. tuberculosis. It counts as functional.
The target in assay [7] is T1, Beta-2 adrenergic receptor. The assay can be described thus: Dose response for HTS for Beta-2AR agonists via FAP method from Powderset3. It counts as functional.
Another assay addresses Major prion protein (Homo sapiens, UniProt P04156). It counts as functional, cell-based.
Assay [8] can be described thus: cells.
The target of assay [9] is Botulinum neurotoxin type F (Clostridium botulinum, UniProt P30996). The experiment in a line: High-throughput multiplex microsphere dose response for inhibitors of toxin protease, specifically Botulinum neurotoxin light chain F protease, compounds from Cherry Pick 02. It counts as functional. Conditions: read-out: EC50_MICROM.
For another assay, the target named is T2, Protein skinhead-1 (Caenorhabditis elegans, UniProt P34707).
T2 sequence (P34707 whole entry): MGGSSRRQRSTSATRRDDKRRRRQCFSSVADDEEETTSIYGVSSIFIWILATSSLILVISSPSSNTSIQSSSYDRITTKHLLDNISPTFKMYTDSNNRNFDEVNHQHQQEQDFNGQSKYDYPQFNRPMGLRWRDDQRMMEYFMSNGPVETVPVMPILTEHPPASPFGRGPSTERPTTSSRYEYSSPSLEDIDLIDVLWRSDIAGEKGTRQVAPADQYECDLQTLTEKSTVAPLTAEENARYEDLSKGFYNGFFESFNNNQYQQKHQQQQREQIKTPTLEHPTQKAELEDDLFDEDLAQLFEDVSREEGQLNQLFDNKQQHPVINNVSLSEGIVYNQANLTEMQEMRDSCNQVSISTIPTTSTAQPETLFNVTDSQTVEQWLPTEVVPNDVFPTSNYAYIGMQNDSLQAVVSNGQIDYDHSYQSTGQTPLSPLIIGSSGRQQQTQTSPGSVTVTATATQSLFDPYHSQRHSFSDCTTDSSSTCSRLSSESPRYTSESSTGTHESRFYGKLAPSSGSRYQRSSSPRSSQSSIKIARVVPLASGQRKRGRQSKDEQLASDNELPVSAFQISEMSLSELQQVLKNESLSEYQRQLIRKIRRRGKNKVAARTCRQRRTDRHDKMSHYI
It counts as functional.

In the next assay the test system is Vero. The assay can be described thus: Vero cell toxicity, dose response, cytotoxicity control, plate reader, cherry-pick samples (AID 687020). It counts as functional, cell-based. Conditions: Chlorocebus sabaeus.
A further assay concerns the target Kallikrein-7 (Homo sapiens, UniProt P49862). The assay can be described thus: Fluorescence Intensity-based biochemical primary high throughput dose response assay to identify activators of kallikrein-7 (K7) zymogen.
The nature of assay [10]: EDANS-DABCYL fluorescence interference, concentration series, dose response, artefact control for kallikrein-7 zymogen activator project, biochemical, fluorescence intensity, triplicate (AID 720493).
Assay [11] is described as follows: off-target signal loss in HeLa-CEM21 co-culture – HeLa F-luc CTL cells, cherry-picked, counter-screen for HIV-1 Env fusion inhibitor project, dose response (AID 652040).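 Also: potency for signal decrease marking cytotoxic or nonspecific inhibition.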 Format: functional, cell-based.
A short description of assay [12]: inhibitors of HIV Env-driven cell fusion, dose response, cherry-pick (AID 652057). Format: functional, cell-based.
A short description of assay [13]: CEM21 lymphoblast cell cytotoxicity, dose response, cytotoxicity control for viral fusion inhibitor project, CellTiter-Glo luminescence, cherry-picked (AID 652042).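 Also: potency for signal decrease meaning cytotoxicity.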 Format: functional, cell-based. (Cellular ATP, detected with luciferase, serves as a proxy for viable cell number.)
A short description of assay [14]: ZM109 Env clade C HIV-1 fusion inhibitors, dose response, HeLa effector, CEM target cells, luciferase, cherry-pick (AID 652058). Format: functional, cell-based.
The nature of assay [15]: inhibitors of clade B AD8 Env fusion, dose response, cell-based, cherry-pick (AID 652062).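 Also: luciferase signal from cell-cell fusion driven by HIV-1 clade B AD8 Env; potency is for inhibitors of fusion seen as a drop in luminescence.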 Format: functional.
The nature of assay [16]: CEM21 cell cytotoxicity, dose response, cytotoxicity control, plate reader, dry powder (AID 687026). It counts as functional, cell-based.
The target in assay [17] is T3, Corticotropin-releasing factor receptor 2/Corticotropin-releasing factor-binding protein (Homo sapiens, UniProt P24387+Q13324).
T3 sequence (Q13324 whole entry): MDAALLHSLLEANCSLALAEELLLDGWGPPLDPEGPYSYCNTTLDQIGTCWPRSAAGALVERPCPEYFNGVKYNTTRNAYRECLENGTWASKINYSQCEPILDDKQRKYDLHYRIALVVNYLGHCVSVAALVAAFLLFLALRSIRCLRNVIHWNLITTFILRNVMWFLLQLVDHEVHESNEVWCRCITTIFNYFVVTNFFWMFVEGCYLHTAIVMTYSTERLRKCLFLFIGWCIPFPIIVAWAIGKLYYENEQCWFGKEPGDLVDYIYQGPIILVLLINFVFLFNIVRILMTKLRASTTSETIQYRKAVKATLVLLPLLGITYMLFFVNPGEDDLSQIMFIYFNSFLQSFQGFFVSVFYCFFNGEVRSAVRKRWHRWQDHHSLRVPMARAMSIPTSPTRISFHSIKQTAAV
T3 sequence (P24387 whole entry): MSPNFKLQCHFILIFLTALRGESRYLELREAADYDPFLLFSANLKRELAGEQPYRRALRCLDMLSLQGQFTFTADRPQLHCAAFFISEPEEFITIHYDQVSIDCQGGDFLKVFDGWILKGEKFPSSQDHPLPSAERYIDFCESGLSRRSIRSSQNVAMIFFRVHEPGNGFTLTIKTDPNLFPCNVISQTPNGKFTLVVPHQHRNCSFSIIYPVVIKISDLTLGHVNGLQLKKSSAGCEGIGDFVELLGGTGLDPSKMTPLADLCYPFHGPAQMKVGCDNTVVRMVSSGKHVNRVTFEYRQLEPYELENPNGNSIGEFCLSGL
The experiment in a line: activators of CRF receptor 2 with binding protein – uHTS hits, confirmation (AID 602473). It counts as functional. The conditions noted are these: read-out: EC50_Mean.

A short description of assay [18]: HEK293T cell cytotoxicity, dose response, cytotoxicity control for HIV Vif inhibitor project, cherry-picks (AID 652208). It counts as functional, cell-based.
The nature of assay [19]: NIH/3T3 fibroblast cytotoxicity, dose response, cytotoxicity control, cell-based, plate reader, dry powder, set 2 (AID 652280). It counts as functional. Conditions: NIH3T3.
Assay [20] can be described thus: T. cruzi growth inhibition in host cells, dose response, cell-based, plate reader, dry powder, set 2 (AID 652275). It counts as functional.
Another assay concerns the target Protein Wnt-3a (Mus musculus, UniProt P27467). The experiment in a line: SAR analysis of small molecule antagonists of Gli-SUFU in a Wnt3a luminescent reporter assay. Format: functional. In general terms: In a reporter assay the amount or activity of a reporter protein is the signal.
Assay [21] can be described thus: A Cell-Based Confirmatory Screen for Compounds that Inhibit VEEV, TC-83 (8). It counts as functional.
Assay [22] is described as follows: A Cell-Based Confirmatory Screen for Compounds that Inhibit VEEV, TC-83 (7). It counts as functional.
The nature of assay [23]: MITF: Counter assay: A375 proliferation Measured in Cell-Based System Using Plate Reader - 2084-03_Inhibitor_Dose_DryPowder_Activity_Set8. It counts as functional. Conditions: A-375.
Assay [24] in a line: TRPM1 promoter luciferase reporter signal decrease, dose response, MITF inhibitor project, cell-based, SK-MEL-5, dry powder, set 8 (AID 624430). It counts as functional.
The nature of assay [25]: MITF Orthogonal Assay: SK-MEL-5 CTG Assay Measured in Cell-Based System Using Plate Reader - 2084-02_Inhibitor_Dose_DryPowder_Activity_Set7. It counts as functional.
The nature of assay [26]: A549 cell cytotoxicity, dose response, cytotoxicity control, CellTiter-Glo luminescence, dry powder, set 3 (AID 743146). It counts as functional, cell-based.
Assay [27] can be described thus: HEK293 cell cytotoxicity, dose response, cytotoxicity control, cherry-picks, set 5 (AID 1053117). Format: functional, cell-based.

Calls of active or inactive are those of the source. Where only a bound is given, the exact number is not on record here.

Consider `CCc1ccc(NC(=O)N2CCc3ccccc3C2)cc1`, for which the IC50 (in assay [1]; in the assay “cells [2]”) was > 67.6 µM (inactive) throughout. On to `Cc1nnc(SCc2cnc(-c3ccccc3)o2)nc1O`, for which the Ki (commonly the equilibrium dissociation constant of an inhibitor or competing ligand from its target) at fMet-Leu-Phe receptor is > 66.7 µM (inactive). Further, in [3], the AC50 (commonly the concentration giving half of the maximal activity seen) was 0.547 µM (active). For the compound `CCN1CCN(Cc2c(O)ccc3c(C)cc(=O)oc23)CC1`, in assay [4], the AC50 is 10 µM (active). Regarding `O=C(c1cc2c(=O)n3ccccc3nc2s1)N1CCN(Cc2ccc3c(c2)OCO3)CC1`, the EC50 was 0.0693 µM (active) in assay [5] and 0.00977 µM (active) in assay [7]. Moreover, in [6], the IC50 (commonly the concentration at which inhibition is half-maximal) was > 1.11 µM (active).

In the case of `CCOC(=O)C(C)Sc1nc(-c2ccccc2)nc2ccccc12` (stereo not drawn), the IC50 at Major prion protein was 1.83 µM (active); in “cells [8]”, > 138 µM (inactive). In the case of `CCC(=O)NCCn1c(C)cc2ccccc21`, the EC50 in assay [9] was > 20 µM (inactive). Further, the IC50 on Protein skinhead-1 was > 100 µM (inactive).

For the compound `CC(=O)Nc1cccc(OCCCNC(=O)c2ccc(C(C)(C)C)cc2)c1`, in the assay with Vero, the AC50 is 35.3 µM (active). In the case of `COc1cc2c(cc1OC)C(=O)CC(C)S2` (stereo not drawn), the EC50 is 8.28 µM (active) at Kallikrein-7 and > 7.73 µM (active) in assay [10]. On to `CCCn1nc(C(=O)Nc2ccc3nc(N4CCOCC4)sc3c2)ccc1=O`, for which the AC50 in assay [11] is > 70 µM (inactive); in assay [12], 1.85 µM (active); in assay [13], 67.1 µM (active); in assay [14], 1.04 µM (active); in [15] it was 10.3 µM (active); in assay [16] it was > 70 µM (inactive).

For the compound `O=C(NCc1ccccc1C(F)(F)F)c1cccc2c1C(=O)c1ccc(N3CCCCC3)cc1S2(=O)=O`, the EC50 in assay [17] is 5.37 µM (active). In [18], the AC50 is > 52 µM (inactive). Turning to `CN(C)CC#Cc1cccc(-c2nc(C(=O)Nc3ccc(-c4ccccc4)cc3)cc3c2[C@H](CCO)N([S+]([O-])C(C)(C)C)C3)c1` (stereo partly drawn), the AC50 in assay [19] is 9.5 µM (active). On to `CC(C)(C)[S@@+]([O-])N1Cc2cc(C(=O)NCc3ccc4c(c3)OCO4)nc(-c3cccc(-c4cccnc4)c3)c2[C@H]1CCO`, for which the AC50 in assay [20] is 1.67 µM (active). Take `O=C(Nc1cc(N2CCCCC2)ncn1)c1ccccc1C(F)(F)F`: the IC50 on Protein Wnt-3a was 6.48 µM (active). On to `CN1CCN(C)/C(=N/c2ccc([N+](=O)[O-])cc2C(=O)Nc2ccccc2)C1`, for which the figures for the IC50 in assay [21] and in assay [22] were < 0.073 µM (active) and < 0.04 µM (active), respectively. `CC(C)N1CCN(C2=C(Nc3cccc(Cl)c3)C(=O)c3ccccc3C2=O)CC1`: the AC50 in assay [23] is 30.1 µM (active); in [24], 2.47 µM (active); in assay [25], 7.16 µM (active). As for `O=C(CCNC(=O)c1ccc(Cl)cc1)N[C@H]1CCCc2ccccc21`, the AC50 in assay [26] was > 52 µM (inactive). For `O=S(=O)(c1cccc(F)c1)N1CC[C@@H]2[C@H]1c1cc(-c3cccc(F)c3)ccc1N[C@@H]2CO`, the AC50 in assay [27] was 33.9 µM (active).
